Results from patent US9249129B2, “Morpholino substituted urea derivatives as mTOR inhibitors” (CELLZOME LIMITED, priority 2010, dated 2016).

Legend:
Assay in all cases: kinobeads assay with mass spectrometry detection of kinases (kinase selectivity profile)
Format in all cases: binding
[1] = molecular target: T1, kinases (kinome) (Homo sapiens, UniProt Q9P2K8); conditions: GCN2 (Other), IPI00163851
T1 construct: determined in kinobeads assays with mass spectrometry detection of kinases as described previously; endogenous in cells; host or cells: cell lysate
T1 sequence (Q9P2K8 whole entry): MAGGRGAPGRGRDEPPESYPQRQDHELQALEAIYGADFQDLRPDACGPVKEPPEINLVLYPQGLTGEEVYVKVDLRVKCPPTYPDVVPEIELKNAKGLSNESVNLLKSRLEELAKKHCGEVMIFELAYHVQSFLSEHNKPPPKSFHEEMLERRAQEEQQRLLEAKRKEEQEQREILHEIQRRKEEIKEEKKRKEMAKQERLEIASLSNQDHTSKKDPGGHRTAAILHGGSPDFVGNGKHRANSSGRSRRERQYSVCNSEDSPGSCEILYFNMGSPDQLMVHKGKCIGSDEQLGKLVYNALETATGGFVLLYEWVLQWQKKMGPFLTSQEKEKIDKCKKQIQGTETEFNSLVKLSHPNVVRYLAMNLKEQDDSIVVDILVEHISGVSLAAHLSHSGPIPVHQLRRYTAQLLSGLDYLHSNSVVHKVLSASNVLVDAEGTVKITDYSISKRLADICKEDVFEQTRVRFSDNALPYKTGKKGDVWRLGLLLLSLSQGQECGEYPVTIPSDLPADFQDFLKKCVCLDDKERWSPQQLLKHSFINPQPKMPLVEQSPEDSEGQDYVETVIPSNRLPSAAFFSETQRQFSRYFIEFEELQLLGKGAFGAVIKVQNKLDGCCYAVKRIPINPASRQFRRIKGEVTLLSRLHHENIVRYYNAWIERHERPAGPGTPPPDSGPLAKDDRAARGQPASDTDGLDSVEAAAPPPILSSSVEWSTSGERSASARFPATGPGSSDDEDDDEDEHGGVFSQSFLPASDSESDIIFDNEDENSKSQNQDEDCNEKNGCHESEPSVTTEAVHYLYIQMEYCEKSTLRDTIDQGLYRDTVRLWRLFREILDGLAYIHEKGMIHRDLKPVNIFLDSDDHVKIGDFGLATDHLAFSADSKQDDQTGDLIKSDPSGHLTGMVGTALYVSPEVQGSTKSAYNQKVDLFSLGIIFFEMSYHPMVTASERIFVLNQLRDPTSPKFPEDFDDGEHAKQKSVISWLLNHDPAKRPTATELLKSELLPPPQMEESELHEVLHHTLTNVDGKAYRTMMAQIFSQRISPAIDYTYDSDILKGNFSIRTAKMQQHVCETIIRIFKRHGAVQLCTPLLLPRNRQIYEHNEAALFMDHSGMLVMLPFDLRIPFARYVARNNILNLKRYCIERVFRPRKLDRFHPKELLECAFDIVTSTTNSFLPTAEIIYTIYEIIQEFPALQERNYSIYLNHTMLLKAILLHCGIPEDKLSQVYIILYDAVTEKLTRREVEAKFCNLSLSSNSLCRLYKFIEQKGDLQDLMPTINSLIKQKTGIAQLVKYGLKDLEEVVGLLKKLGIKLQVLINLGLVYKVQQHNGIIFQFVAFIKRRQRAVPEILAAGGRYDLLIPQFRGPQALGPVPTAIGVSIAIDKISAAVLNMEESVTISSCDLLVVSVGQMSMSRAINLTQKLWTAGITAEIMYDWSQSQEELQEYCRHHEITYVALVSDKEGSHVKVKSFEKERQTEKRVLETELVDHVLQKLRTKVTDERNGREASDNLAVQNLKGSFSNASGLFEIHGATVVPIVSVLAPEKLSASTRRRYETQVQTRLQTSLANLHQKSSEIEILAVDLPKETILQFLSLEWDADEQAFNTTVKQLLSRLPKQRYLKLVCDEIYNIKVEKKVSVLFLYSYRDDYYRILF
Source text: (§1) The protein kinase complement of the human genome (the kinome) was described previously (Manning et al., 2002. Science 298(5600):1912-1934). Sequence accession numbers are defined by the International Protein Index (IPI) (Kersey et al., 2004. Proteomics 4(7):1985-1988).

[2] = molecular target: T2, kinases (kinome) (Homo sapiens, UniProt Q13418); conditions: ILK (TKL), IPI00013219
T2 construct: determined in kinobeads assays with mass spectrometry detection of kinases as described previously; endogenous in cells; host or cells: cell lysate
T2 sequence (Q13418 1-452): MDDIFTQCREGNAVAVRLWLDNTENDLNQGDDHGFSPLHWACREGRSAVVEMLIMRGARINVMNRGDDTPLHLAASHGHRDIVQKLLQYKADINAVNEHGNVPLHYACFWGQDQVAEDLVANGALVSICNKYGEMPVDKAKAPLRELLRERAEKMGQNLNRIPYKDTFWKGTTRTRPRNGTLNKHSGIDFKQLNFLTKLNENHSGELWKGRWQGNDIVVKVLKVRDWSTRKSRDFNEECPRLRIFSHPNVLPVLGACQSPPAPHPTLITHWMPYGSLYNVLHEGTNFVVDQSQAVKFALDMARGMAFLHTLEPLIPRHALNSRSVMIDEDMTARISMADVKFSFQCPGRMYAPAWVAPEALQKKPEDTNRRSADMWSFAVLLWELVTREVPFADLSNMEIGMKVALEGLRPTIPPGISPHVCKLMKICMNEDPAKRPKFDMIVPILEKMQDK
Source text: as §1

[3] = molecular target: T3, kinases (kinome) (Homo sapiens, UniProt P06493); conditions: CDC2 (CMGC), IPI00026689
T3 construct: determined in kinobeads assays with mass spectrometry detection of kinases as described previously; endogenous in cells; host or cells: cell lysate
T3 sequence (P06493 whole entry): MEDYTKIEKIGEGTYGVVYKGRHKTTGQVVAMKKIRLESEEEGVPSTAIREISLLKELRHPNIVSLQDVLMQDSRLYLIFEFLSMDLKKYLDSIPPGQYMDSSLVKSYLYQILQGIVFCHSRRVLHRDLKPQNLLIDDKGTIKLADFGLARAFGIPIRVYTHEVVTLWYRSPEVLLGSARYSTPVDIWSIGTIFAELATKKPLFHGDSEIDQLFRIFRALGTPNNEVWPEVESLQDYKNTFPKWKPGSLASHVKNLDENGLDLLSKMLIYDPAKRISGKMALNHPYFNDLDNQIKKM
Source text: as §1

[4] = molecular target: T4, kinases (kinome) (Homo sapiens, UniProt Q9NSY1); conditions: BIKE (Other), IPI00337426
T4 construct: determined in kinobeads assays with mass spectrometry detection of kinases as described previously; endogenous in cells; host or cells: cell lysate
Source text: as §1

[5] = molecular target: T5, kinases (kinome) (Homo sapiens, UniProt P53667); conditions: LIMK1 (TKL), IPI00291702
T5 construct: determined in kinobeads assays with mass spectrometry detection of kinases as described previously; endogenous in cells; host or cells: cell lysate
Source text: as §1

[6] = molecular target: T6, kinases (kinome) (Homo sapiens, UniProt P06241); conditions: FYN (TK), IPI00219012
T6 construct: determined in kinobeads assays with mass spectrometry detection of kinases as described previously; endogenous in cells; host or cells: cell lysate
Source text: as §1

[7] = molecular target: T7, kinases (kinome) (Homo sapiens, UniProt Q15759); conditions: p38b (CMGC), IPI00019473
T7 construct: determined in kinobeads assays with mass spectrometry detection of kinases as described previously; endogenous in cells; host or cells: cell lysate
T7 sequence (Q15759 whole entry): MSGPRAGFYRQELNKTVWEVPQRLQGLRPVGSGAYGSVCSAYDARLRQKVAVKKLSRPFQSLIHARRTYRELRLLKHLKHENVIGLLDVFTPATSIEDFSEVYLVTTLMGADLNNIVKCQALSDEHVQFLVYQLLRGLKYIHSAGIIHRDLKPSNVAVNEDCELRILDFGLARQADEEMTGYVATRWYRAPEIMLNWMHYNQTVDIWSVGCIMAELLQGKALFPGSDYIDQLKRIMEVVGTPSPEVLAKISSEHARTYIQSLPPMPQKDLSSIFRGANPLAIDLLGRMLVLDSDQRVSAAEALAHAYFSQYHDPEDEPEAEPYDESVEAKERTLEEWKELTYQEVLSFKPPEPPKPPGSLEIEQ
Source text: as §1

[8] = molecular target: T8, kinases (kinome) (Homo sapiens, UniProt Q13315); conditions: ATM (Atypical), IPI00298306
T8 construct: determined in kinobeads assays with mass spectrometry detection of kinases as described previously; endogenous in cells; host or cells: cell lysate
Source text: as §1

[9] = molecular target: T9, kinases (kinome) (Homo sapiens, UniProt Q13557); conditions: CaMK2d (CAMK), IPI00828081
T9 construct: determined in kinobeads assays with mass spectrometry detection of kinases as described previously; endogenous in cells; host or cells: cell lysate
T9 sequence (Q13557 whole entry): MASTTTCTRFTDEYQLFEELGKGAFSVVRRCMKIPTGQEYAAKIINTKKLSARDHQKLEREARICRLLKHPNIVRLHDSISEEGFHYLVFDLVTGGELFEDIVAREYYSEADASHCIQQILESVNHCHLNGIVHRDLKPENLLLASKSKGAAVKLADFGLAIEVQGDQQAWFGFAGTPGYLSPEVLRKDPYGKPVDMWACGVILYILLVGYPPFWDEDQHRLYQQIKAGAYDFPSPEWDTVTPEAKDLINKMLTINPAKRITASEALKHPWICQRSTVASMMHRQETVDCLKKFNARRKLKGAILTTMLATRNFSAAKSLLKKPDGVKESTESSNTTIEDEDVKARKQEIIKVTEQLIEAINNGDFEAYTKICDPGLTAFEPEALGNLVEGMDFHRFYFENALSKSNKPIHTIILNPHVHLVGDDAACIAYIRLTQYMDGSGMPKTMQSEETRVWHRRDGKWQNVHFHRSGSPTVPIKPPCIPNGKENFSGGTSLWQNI
Source text: as §1

[10] = molecular target: T10, kinases (kinome) (Homo sapiens, UniProt O94768); conditions: DRAK2 (CAMK), IPI00916930
T10 construct: determined in kinobeads assays with mass spectrometry detection of kinases as described previously; endogenous in cells; host or cells: cell lysate
T10 sequence (O94768 1-372): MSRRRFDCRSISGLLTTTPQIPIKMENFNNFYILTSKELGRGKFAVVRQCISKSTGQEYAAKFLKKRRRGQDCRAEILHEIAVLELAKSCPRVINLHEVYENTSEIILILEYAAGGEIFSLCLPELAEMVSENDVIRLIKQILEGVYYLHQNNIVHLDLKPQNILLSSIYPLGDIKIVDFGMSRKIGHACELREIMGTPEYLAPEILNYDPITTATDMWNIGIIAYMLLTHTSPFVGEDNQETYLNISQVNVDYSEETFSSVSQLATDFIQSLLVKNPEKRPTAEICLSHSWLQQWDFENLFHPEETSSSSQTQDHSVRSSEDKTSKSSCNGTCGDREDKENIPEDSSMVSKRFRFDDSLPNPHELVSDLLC
Source text: as §1

[11] = molecular target: T11, kinases (kinome) (Homo sapiens, UniProt O75716); conditions: MPSK1 (Other), IPI00915837
T11 construct: determined in kinobeads assays with mass spectrometry detection of kinases as described previously; endogenous in cells; host or cells: cell lysate
T11 sequence (O75716 whole entry): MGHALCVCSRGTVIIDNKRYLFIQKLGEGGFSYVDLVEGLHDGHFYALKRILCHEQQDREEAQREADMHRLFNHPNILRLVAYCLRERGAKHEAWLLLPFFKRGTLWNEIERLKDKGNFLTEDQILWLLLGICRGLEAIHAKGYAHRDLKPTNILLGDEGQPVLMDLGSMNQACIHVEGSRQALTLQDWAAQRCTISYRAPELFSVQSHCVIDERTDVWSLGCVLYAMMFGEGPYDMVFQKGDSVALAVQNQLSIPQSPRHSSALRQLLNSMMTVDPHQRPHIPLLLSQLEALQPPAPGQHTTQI
Source text: as §1

[12] = molecular target: T12, kinases (kinome) (Homo sapiens, UniProt P36507); conditions: MAP2K2 (STE), IPI00003783
T12 construct: determined in kinobeads assays with mass spectrometry detection of kinases as described previously; endogenous in cells; host or cells: cell lysate
T12 sequence (P36507 whole entry): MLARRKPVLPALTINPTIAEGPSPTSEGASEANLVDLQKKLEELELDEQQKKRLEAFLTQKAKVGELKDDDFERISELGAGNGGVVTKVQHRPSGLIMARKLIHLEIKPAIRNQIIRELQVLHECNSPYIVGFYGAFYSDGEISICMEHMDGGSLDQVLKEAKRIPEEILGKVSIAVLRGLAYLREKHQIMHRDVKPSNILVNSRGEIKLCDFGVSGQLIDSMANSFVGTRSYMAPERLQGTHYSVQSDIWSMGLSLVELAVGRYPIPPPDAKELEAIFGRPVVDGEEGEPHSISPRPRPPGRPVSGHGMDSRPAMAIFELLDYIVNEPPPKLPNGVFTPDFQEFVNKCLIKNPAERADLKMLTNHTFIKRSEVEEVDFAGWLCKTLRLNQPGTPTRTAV
Source text: as §1

[13] = molecular target: T13, kinases (kinome) (Homo sapiens, UniProt Q9BYT3); conditions: STK33 (CAMK), IPI00302351
T13 construct: determined in kinobeads assays with mass spectrometry detection of kinases as described previously; endogenous in cells; host or cells: cell lysate
T13 sequence (Q9BYT3 whole entry): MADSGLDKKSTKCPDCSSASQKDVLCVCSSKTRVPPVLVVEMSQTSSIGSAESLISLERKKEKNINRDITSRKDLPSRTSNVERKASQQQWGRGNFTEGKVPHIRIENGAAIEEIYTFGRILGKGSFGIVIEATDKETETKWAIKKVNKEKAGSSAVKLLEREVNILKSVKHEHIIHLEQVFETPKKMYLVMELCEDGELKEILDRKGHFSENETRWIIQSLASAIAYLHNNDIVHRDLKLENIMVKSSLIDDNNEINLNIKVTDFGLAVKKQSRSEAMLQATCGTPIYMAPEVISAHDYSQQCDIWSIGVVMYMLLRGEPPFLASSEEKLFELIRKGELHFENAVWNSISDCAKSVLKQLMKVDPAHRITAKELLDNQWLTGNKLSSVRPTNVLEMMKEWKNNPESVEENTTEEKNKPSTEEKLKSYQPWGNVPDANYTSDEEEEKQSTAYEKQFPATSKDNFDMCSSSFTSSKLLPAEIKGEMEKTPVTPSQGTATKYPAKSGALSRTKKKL
Source text: as §1

[14] = molecular target: T14, kinases (kinome) (Homo sapiens, UniProt O60885); conditions: BRD4 (Atypical), IPI00440727
T14 construct: determined in kinobeads assays with mass spectrometry detection of kinases as described previously; endogenous in cells; host or cells: cell lysate
Source text: as §1

[15] = molecular target: T15, kinases (kinome) (Homo sapiens, UniProt Q13535); conditions: ATR (Atypical), IPI00412298; 0.1 μM ranges
T15 construct: determined in kinobeads assays with mass spectrometry detection of kinases as described previously; endogenous in cells; host or cells: cell lysate
Source text: as §1

[16] = molecular target: T16, kinases (kinome) (Homo sapiens, UniProt Q9BVS4); conditions: RIOK2 (Atypical), IPI00306406
T16 construct: determined in kinobeads assays with mass spectrometry detection of kinases as described previously; endogenous in cells; host or cells: cell lysate
T16 sequence (Q9BVS4 whole entry): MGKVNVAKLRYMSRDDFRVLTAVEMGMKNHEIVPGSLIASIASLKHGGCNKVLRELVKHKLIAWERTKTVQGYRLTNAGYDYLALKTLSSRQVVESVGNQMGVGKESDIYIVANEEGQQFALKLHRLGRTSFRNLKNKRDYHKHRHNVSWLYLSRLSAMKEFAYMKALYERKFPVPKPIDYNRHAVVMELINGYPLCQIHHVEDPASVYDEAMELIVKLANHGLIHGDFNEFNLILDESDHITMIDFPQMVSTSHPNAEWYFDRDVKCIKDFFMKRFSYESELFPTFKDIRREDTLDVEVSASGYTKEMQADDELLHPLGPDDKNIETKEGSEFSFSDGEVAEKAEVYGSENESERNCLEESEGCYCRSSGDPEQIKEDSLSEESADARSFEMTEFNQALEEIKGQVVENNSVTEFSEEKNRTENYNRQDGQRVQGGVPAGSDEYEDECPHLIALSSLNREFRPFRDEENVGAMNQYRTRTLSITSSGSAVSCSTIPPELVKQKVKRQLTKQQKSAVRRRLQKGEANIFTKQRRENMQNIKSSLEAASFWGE
Source text: as §1

[17] = molecular target: T17, kinases (kinome) (Homo sapiens, UniProt Q9NYL2); conditions: ZAK (TKL), IPI00329638
T17 construct: determined in kinobeads assays with mass spectrometry detection of kinases as described previously; endogenous in cells; host or cells: cell lysate
Source text: as §1

[18] = molecular target: T18, kinases (kinome) (Homo sapiens, UniProt Q9Y6R4); conditions: MAP3K4 (STE), IPI00386260
T18 construct: determined in kinobeads assays with mass spectrometry detection of kinases as described previously; endogenous in cells; host or cells: cell lysate
Source text: as §1

[19] = molecular target: T19, kinases (kinome) (Homo sapiens, UniProt P49841); conditions: GSK3B (CMGC), IPI00216190
T19 construct: determined in kinobeads assays with mass spectrometry detection of kinases as described previously; endogenous in cells; host or cells: cell lysate
T19 sequence (P49841 whole entry): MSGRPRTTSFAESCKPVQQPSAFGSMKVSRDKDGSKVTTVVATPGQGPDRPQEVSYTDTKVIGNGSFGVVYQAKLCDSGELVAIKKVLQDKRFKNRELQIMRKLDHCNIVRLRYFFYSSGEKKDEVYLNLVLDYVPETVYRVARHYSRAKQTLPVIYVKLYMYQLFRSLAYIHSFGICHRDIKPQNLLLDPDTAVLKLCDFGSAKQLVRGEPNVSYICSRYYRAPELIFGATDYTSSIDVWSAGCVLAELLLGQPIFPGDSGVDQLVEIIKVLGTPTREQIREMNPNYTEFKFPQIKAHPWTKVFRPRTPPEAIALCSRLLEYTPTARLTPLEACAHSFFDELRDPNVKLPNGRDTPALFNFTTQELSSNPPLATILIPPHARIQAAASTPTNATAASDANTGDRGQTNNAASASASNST
Source text: as §1

[20] = molecular target: T20, kinases (kinome) (Homo sapiens, UniProt Q14680); conditions: MELK (CAMK), IPI00006471
T20 construct: determined in kinobeads assays with mass spectrometry detection of kinases as described previously; endogenous in cells; host or cells: cell lysate
Source text: as §1

[21] = molecular target: T21, kinases (kinome) (Homo sapiens, UniProt P50613); conditions: CDK7 (CMGC), IPI00000685
T21 construct: determined in kinobeads assays with mass spectrometry detection of kinases as described previously; endogenous in cells; host or cells: cell lysate
Source text: as §1

Measured: IC50

C[C@H]1COCCN1c1nc(-c2ccc(NC(=O)NC3CC3)cc2)cc(-c2ccccc2S(C)(=O)=O)n1 [Example 4, (S)-1-cyclopropyl-3-(4-(2-(3-methylmorpholino)-6-(2-(methylsulfonyl)phenyl)pyrimidin-4-yl)phenyl)urea]
> 10 µM: all assays above
